In patent US20240115881A1, “METHODS AND SYSTEMS FOR DETERMINING THE DISTRIBUTION OF RADIATION DOSE AND RESPONSE” (priority 2022, published 2024):
Several values for one entry are separate records, joined by “and”; a condition that tells them apart may be missing. Equal values may be shown once. Read-outs that look alike come from different tables or passages of the source.

Experiments:
[1] = system: MDA-MB-468 human breast cancer cell line grown as spheroids; conditions: cited from earlier work
[2] = system: Chinese hamster V79 lung fibroblasts; assay: clonogenic survival assay (colony formation) after single-agent treatment; type: cell-based; conditions: for surviving fraction for drug alone: 0.63 μM daunomycin or 2.50 μM doxorubicin, 2.5 h; for mean lethal concentration: extracellular concentration for 37% survival, 2.5 h exposure
Method: The surviving fraction SF of cells exposed to the agent was assessed with a clonogenic survival assay and plotted as a function of several different variables including extracellular concentration, <I>net, absorbed dose (Gy), and mean cellular activity (mBq/cell). The resulting survival curves were of a 1- or 2-component exponential form. Analogous to the cellular activity and absorbed dose required to achieve 37% survival, a37 and D37, the net mean lethal fluorescence intensity of the drug required to achieve 37% survival, <I>net37 , can be defined similarly and obtained from plots of SF versus <I>net.
To evaluate ^210Po cytotoxicity, the surviving fraction was plotted as a function of EuTc-citrate net MFI, mean cellular uptake of ^210Po, and mean absorbed dose to the nucleus (FIG. 4A). […] The relationships between cell survival and EuTc-citrate net MFI or cellular ^210Po activity can be described by an exponential function SF=exp(−A/A1). The relationship between cell survival and drug net MFI (or extracellular concentration) for daunomycin and doxorubicin are illustrated in FIGS. 4B and 4C, respectively. For both drugs, clonogenic survival and cellular drug uptake (as determined by net MFI) are related via two component exponential functions SF=b exp(−A/A1)+(1-b) exp(−A/A2). A is the intracellular activity of ^210Po-citrate, absorbed dose to the cell nucleus, or drug concentration. Least squares fits of the survival data to this function were performed. The variable b is a fitted parameter.
Chinese hamster V79 lung fibroblasts were used. Two different formulations of minimum essential media (MEMA and MEMB) were used, as known in the literature. All media and supplements were Gibco (Carlsbad, CA), including fetal calf serum (catalog no. 10437, lot no. 539574). For routine maintenance, cells were grown as monolayers in Falcon 25-cm^2 tissue culture flasks (BD, Franklin Lakes, NJ, catalog no. 353082) at 37° C., 5% CO2-95% air, and subcultured twice weekly. For experiments, V79 cells (passage 4-11) were transferred into Falcon 225-cm^2 flasks (BD, catalog no. 353138), and were used upon reaching 80%-90% confluence.
Cells grown in 225-cm^2 flasks were trypsinized (0.25% trypsin, Gibco, catalog no. 25200-056), and MEMB was added to obtain 2×10^6 cells/mL. Aliquots of 1 mL were placed in Falcon 17×100 mm polypropylene tubes (BD, catalog no. 352018) and placed on a rocker-roller (Thermo Fisher, Fair Lawn, NJ) for 3 hours at 37° C. with 5% CO2 and 95% air. After this conditioning period, cells were treated with drug or radiochemical. Cell cultures were exposed to radiochemical and drugs for 0.5 and 2.5 h, respectively.
^210PoCl4 in 2 mol/L HCI was obtained at 370 MBq/mL from Eckert&Ziegler Isotope Products (Valencia, CA, catalog no. 6310). ^210Po-citrate was prepared as follows. Briefly, PoCl4 solution was mixed with 1 mol/L sodium citrate in the ratio of 1:7 (final pH 5.8), and was diluted with MEMB to a volume of 4 mL (final pH 6.9). One milliliter of MEMB containing 210Po-citrate was added to the 1 mL of conditioned V79 cultures (2×10^6 cells/mL), to arrive at a concentration of 0-250 kBq/mL (pH 6.9-7.0). After incubating for 30 min, the cells were washed 2× with MEMB, resuspended in 2 mL of MEMB, and incubated on a rocker-roller for 2.5 h to simulate concomitant drug exposure. The cells were resuspended in a 5 mL of MEMB, passed 5× through a needle, and counted with a Beckman Coulter Model Z2 (Brea, CA). Aliquots (500 μL) of the cell suspension were transferred to vials, mixed with 5 mL Ecolume (MP Biomedical, Solon, OH, catalog no. 882470), and counted with a Beckman Coulter LS6500, and the mean activity per cell was determined (efficiency, 50% as per prior studies). Aliquots of about 5×10^5 cells were counted in triplicate for ^210Po activity and the cpm ranged from 10^3-10^5. The triplicate measurements kept statistical variations to a minimum. […]

[3] = system: V79 cells; assay: cellular uptake by flow cytometry (fluorescence intensity per cell, MFI); type: cell-based, Chinese hamster; conditions: linear least squares fit; for slope of net MFI versus extracellular drug concentration, low concentrations: Cdauno<0.6 μmol/L, Cdoxo<1 μmol/L; for slope of net MFI versus extracellular drug concentration, high concentrations: Cdauno>0.6 μmol/L (+1161), Cdoxo>1 μmol/L (+29)
Method: Briefly, flow cytometry was used to quantify their mean fluorescence intensity (MFI) per cell, <I>, as a function of the concentration of the agent in the cell culture medium. The net mean fluorescence intensities per cell, <I>net, were determined by subtracting control autofluorescence <I>control, according to the following equation: […]
^210Po-Citrate. The uptake of ^210Po-citrate was determined on a cell-by-cell basis by flow cytometric techniques, using ^210Po-free citrate. Briefly, V79 cells (2×10^6 cells/mL) were treated with 0-3 mmol/L of citrate and incubated on a rocker-roller as described earlier. Cellular uptake of citrate was tracked using an europium tetracycline (EuTc) conjugate. Samples were washed 2× with 10 mmol/L MOPS buffer (Sigma, St. Louis, catalog no. M3183), after a 30 min exposure to citrate. The cells were resuspended in 1 mL of MOPS buffer containing EuTc (Sigma, catalog nos. 203254 for Eu and T7660 for Tc), transferred into 7 ml polystyrene flow cytometry tubes (BD, catalog no. 352054), and were incubated at room temperature (˜22° C.) in the dark for 30 min. The final concentration of EuTc was 100 μmol/L. EuTc forms a ternary complex with citrate (EuTc-citrate) which is excitable at 488 nm, and its emission can be captured within the wavelengths transmitted by the 610/20 filter. After washing 2× with MOPS buffer, the samples were resuspended in 1 mL of MOPS buffer, passed 5× through a 21-gauge needle, and were analyzed by flow cytometry using an LSR II flow cytometer (BD), equipped with a 488 nm laser. Cellular incorporation of citrate, expressed in terms of the fluorescence intensity per cell or mean fluorescence intensity (MFI) of EuTc-citrate, was used as a surrogate measure cellular uptake of ^210Po-citrate.
To determine the cellular uptake of daunomycin and doxorubicin, the cells were treated with 0-10 μmol/L of each drug in MEMB and incubated on a rocker-roller for 2.5 h. The cells were washed 2× with phosphate buffered saline (PBS), resuspended in 1 mL of PBS, passed 5× through a needle, and were immediately subjected to flow cytometric analysis. The 488 nm laser was used to excite intracellular daunomycin and doxorubicin, and the emission spectra were captured within the wavelengths transmitted by the 575/26 and 530/30 filters, respectively. Cellular incorporation of drugs was also expressed as MFI.

[4] = system: V79 cells; assay: clonogenic survival after combined treatment with 210Po-citrate and a chemotherapy drug; type: cell-based, Chinese hamster; conditions: for effect on radiotoxicity of 210Po-citrate α-particles: 0.63 μM daunomycin or 2.50 μM doxorubicin plus graded 210Po-citrate, corrected for drug toxicity
Method: (§1) ^210PoCl4 in 2 mol/L HCI was obtained at 370 MBq/mL from Eckert&Ziegler Isotope Products (Valencia, CA, catalog no. 6310). ^210Po-citrate was prepared as follows. Briefly, PoCl4 solution was mixed with 1 mol/L sodium citrate in the ratio of 1:7 (final pH 5.8), and was diluted with MEMB to a volume of 4 mL (final pH 6.9). One milliliter of MEMB containing 210Po-citrate was added to the 1 mL of conditioned V79 cultures (2×10^6 cells/mL), to arrive at a concentration of 0-250 kBq/mL (pH 6.9-7.0). After incubating for 30 min, the cells were washed 2× with MEMB, resuspended in 2 mL of MEMB, and incubated on a rocker-roller for 2.5 h to simulate concomitant drug exposure. The cells were resuspended in a 5 mL of MEMB, passed 5× through a needle, and counted with a Beckman Coulter Model Z2 (Brea, CA). Aliquots (500 μL) of the cell suspension were transferred to vials, mixed with 5 mL Ecolume (MP Biomedical, Solon, OH, catalog no. 882470), and counted with a Beckman Coulter LS6500, and the mean activity per cell was determined (efficiency, 50% as per prior studies). Aliquots of about 5×10^5 cells were counted in triplicate for ^210Po activity and the cpm ranged from 10^3-10^5. The triplicate measurements kept statistical variations to a minimum. Each sample was serially diluted and plated in Falcon 60×15 mm tissue culture dishes for colony formation. Cultures were incubated for 7 days, and the colonies were fixed in 95% ethanol, stained with 0.01% Amido Black, washed in tap-water, air-dried, and counted.
After conditioning, the cell cultures were treated with daunomycin (Sigma, catalog no. D8809) or doxorubicin (Sigma, catalog no. 44583) to a final concentration of 0-10 μmol/L in MEMB. The tubes were returned to the rocker-roller for 2.5 h. The cells were then processed for colony formation as described above.
To evaluate cytotoxicity of combined treatment of V79 cells with ^210Po-citrate and daunomycin, or ^210Po-citrate and doxorubicin, the surviving fraction of clonogens was plotted as a function of mean cellular uptake of ^210Po (FIG. 9) and as a function of mean absorbed dose to the cell nucleus. When cells were only treated with ^210Po-citrate, the survival curve can be described by a 1-component exponential function. When cells were concomitantly treated with a single drug concentration and varying amounts of ^210Po-citrate, the dose-response curves followed a 2-component exponential function. The data corresponding to the combined treatments were then corrected for drug toxicity, by dividing the surviving fraction for each datum point by the surviving fraction for drug alone (SF=0.10), and replotted in FIG. 9. Both of the corrected cell survival curves emerged below those obtained for ^210Po-citrate alone.

[5] = system: Chinese hamster V79 lung fibroblasts; conditions: obtained previously, older S values; cited from earlier work
[6] = system: V79 cells; assay: cellular 210Po activity, biologic clearance and cellular dosimetry (liquid scintillation counting); type: cell-based, Chinese hamster; conditions: for intracellular 210Po activity: corresponding to 0.1 mmol/L citrate
Method: The absorbed dose to the cell nucleus was determined as known in the art. Since cells were treated with ^210Po-citrate as a single-cell suspension and were subsequently seeded for colony formation, the small contribution of cross-irradiation from neighboring cells in the colony can be ignored because it is essentially counterbalanced by the reduction in self-dose caused by flattening of cells during the colony forming period. The data was least-squares fitted to obtain a mean biologic half-time of 11.6 h. […] This Tc, the maintenance period of 2.5 h, the subcellular distribution of ^210Po-citrate (28% nucleus, 72% cytoplasm) for V79 cells and published S values, were used to calculate a mean absorbed dose to the cell nucleus of 5.8 Gy/mBq of ^210Po incorporated into the cell.
as §1
To determine the biologic clearance of ^210Po from the cells, 4×10^6 cells/mL were treated with ^210Pocitrate as described above. After two washes with MEMB, the cells were resuspended in 5 mL of MEMB, passed 5× through a needle, and Coulter counted. Aliquots of 500 μL of cells were transferred to vials and mixed with Ecolume. The remaining cell suspension was plated into 25-cm^2 flasks (1.0, 0.5, 0.5, 0.2 and 0.2×10^6 cells/flask). The cultures were harvested after 24, 48, 72, and 96 h, respectively. Each sample was processed for cell counting and liquid scintillation counting as described. All vials were counted after the last harvest. The ratio of cellular activity at each time point to that immediately after treatment was calculated and plotted.

[7] = 0.63 μM daunomycin + 210Po-citrate

## 111In-DTPA-human epidermal growth factor [^111In-EGF]
[1]; 24 h treatment
  activity distribution, cell surface: 62%
  activity distribution, cytoplasm: 22%
  activity distribution, nucleus: 16%
[1]; after a 24-h treatment
  distribution of 111In in the spheroid: fully internalized
[1]; after a 1 h treatment
  penetration into the spheroid: ~20 μm
[1]; treated for 1 h
  distribution of 111In in the spheroid: accumulated mainly on the periphery of the spheroid

## COc1cccc2c1C(=O)c1c(O)c3c(c(O)c1C2=O)C[C@@](O)(C(=O)CO)C[C@@H]3O[C@H]1C[C@H](N)[C@H](O)[C@H](C)O1 [doxorubicin]
[2]
  surviving fraction for drug alone: 0.10
[2]; V79 cells
  mean lethal concentration: 1.26 µmol/L
[3]
  slope of net MFI versus extracellular drug concentration, low concentrations: 61 (μmol/L)^−1
  slope of net MFI versus extracellular drug concentration, high concentrations: 40 (μmol/L)^−1
[4]
  effect on radiotoxicity of 210Po-citrate α-particles: enhance the radiotoxicity of α-particles
[4]; 2.50 μM doxorubicin + 210Po-citrate
  dose dependence of the increased kill: dose-dependent increase

## COc1cccc2c1C(=O)c1c(O)c3c(c(O)c1C2=O)C[C@@](O)(C(C)=O)C[C@@H]3O[C@H]1C[C@H](N)[C@H](O)[C@H](C)O1 [daunomycin]
[2]
  surviving fraction for drug alone: 0.10
[2]; V79 cells
  mean lethal concentration: 0.24 µmol/L
[2]; low extracellular concentrations, V79 cells
  lethality relative to doxorubicin: ~5 ×
[3]
  slope of net MFI versus extracellular drug concentration, low concentrations: 5922 (μmol/L)^−1
  slope of net MFI versus extracellular drug concentration, high concentrations: 2480 (μmol/L)^−1
[4]; [7]
  absorbed dose beyond which the enhancement was independent of dose: about 0.5 Gy
  cellular activity beyond which the enhancement was independent of dose: ~0.09 mBq/cell
[4]
  effect on radiotoxicity of 210Po-citrate α-particles: enhance the radiotoxicity of α-particles

## ^210Po-citrate
[2]; 0.1 mmol/L citrate
  cell kill at this activity: no significant cell kill
[2]; 0.21 mBq/cell
  atoms of 210Po corresponding to the mean lethal uptake: about 3600 atoms
[2]; V79 cells
  uptake giving the mean lethal absorbed dose: 0.21 mBq/cell
[2]; absorbed dose to the cell nucleus, V79 cells
  mean lethal absorbed dose: 1.2 Gy
[2]; over the range of cellular activities employed
  cell killing observed: less than 2 logs
[5]
  former value of mean lethal dose: 0.7 Gy
[6]; V79 cells
  subcellular distribution, cytoplasm: 72%
  subcellular distribution, nucleus: 28%
[6]; clearance of 210Po from V79 cells
  mean biologic half-time: 11.6 h
[6]
  intracellular 210Po activity: 0.03 mBq/cell
[6]; listed as 210Po
  intracellular 210Po activity: 0.03 mBq/cell and ~0.02 mBq/cell
[6]; from biologic half-time and physical half-life of 138 d
  effective half-time Te: 11.6 h
